We go through four molecules from US4563465A, “Treatment of migraine with substituted tropyl benzoate derivatives” (Merrell Dow Pharmaceuticals Inc., priority 1981, dated 1986).

Read-outs that look alike come from different tables or passages of the source.

In data set [1] the test system is 5-HT (Von Bezold-Jarisch reflex). In words: Von Bezold-Jarisch reflex evoked by i.v. 5-HT in the anaesthetized rat, antagonism. Format: in vivo, rat (male Sprague-Dawley). The note with it: for ED50 / minimal effective dose: iv; for ED50: read-out: ED50 (inhibits the response to 5-HT by 50%); for minimal effective dose: read-out: threshold dose (just inhibits the response to 5-HT); for potency relative to metoclopramide: Von Bezold-Jarisch reflex, comparative test. The source says: The activity of these compounds against 5-HT can be assessed in vivo by measurement of the effect of the compound on the Von Bezold-Jarisch Reflex induced by 5-HT injected intravenously into the rat (A.S. Paintal, Physiol. Rev. 53, 159-227, 1973). The transient cardiac slowing arises from an increased […] vagus activity arising from stimulation by 5-HT of sensory afferent fibres in and around the heart (see Example 3).
Antagonism of the Von Bezold-Jarisch reflex evoked by 5-HT in the anaesthetized rat was measured for tropyl 3,5-dimethoxybenzoate (A), tropyl 3,5-dimethylbenzoate (B) and tropyl 3,5-dichlorobenzoate (C) using the following method.
Male Sprague-Dawley rats weighing 250-300 g are anaesthetized with urethane, 1.25 g/kg injected intraperitoneally and set up for recording blood pressure and heart rate as described in J. R. Fozard et al, J. Cardiovas. Pharmacol. 2, 229-245 (1980). A submaximal dose of 5-HT ([…]) is given repeatedly into the cannulated jugular vein and changes in heart rate are quantified. Antagonists are given intravenously and the doses required to just inhibit the response to 5-HT (threshold dose) or to inhibit the response to 5-HT by 50% (ED50) are determined.

In data set [2] the test system is patients with migraine or cluster headaches. The data set can be described thus: Pilot study of tolerance and efficacy, intravenous, in patients with migraine or cluster headaches. The data set is classed as in vivo, human (patients). The note with it: for headache response: Patient No. 6. As for the experimental part: This study was designed to evaluate tolerance and, if possible, efficacy of intravenous tropyl 3,5-dichlorobenzoate in patients with migraine or cluster headaches.
Eight patients (4 males), aged 27-47 with known headache disorders of 5-27 years duration (see Table VII) took part in the study but Patients Nos. 2 and 4 had cluster not migraine headaches and the cause of headaches in Patient No. 6 was unknown.
Tropyl 3,5-dichlorobenzoate was provided as a sterile solution, 1 mg/ml; the desired dose to be diluted in 10 ml normal saline for intravenous infusion over a 2 minute period. No other therapy was taken for at least 24 hours before treatment or during the course of therapy.
Doses as high as 14 mg/day and 9 mg single dose were administered without any signs of intolerance.

Data set [3] has as its system guinea-pig taenia caeci, calcium. In words: Selectivity: inhibition of response to calcium, guinea-pig taenia caeci. Format: biochemical. The note with it: agonist calcium, guinea-pig taenia caeci in potassium depolarized Tyrode solution; read-out: concentration to inhibit standard response to stimulants by 50% (IC50). From the text:
(§1) A selection of classical in vitro pharmacological test preparations (rat uterus, rat fundus, guinea-pig ileum, guinea-pig taenia caeci) were set up according to well-established procedures (see "Pharmacological Experiments on Isolated Preparations" Staff of the Department of Pharmacology, University of Edinburgh, Livingstone, Edinburgh 1970). Various spasmogens were used to elicit contraction of these tissues though mechanisms other than the 5-HT "M" receptor. The concentrations of tropyl 3,5-dimethoxybenzoate (A), tropyl 3,5-dimethylbenzoate (B) and tropyl 3,5-dichlorobenzoate (C) which reduced the effects of a submaximal dose of agonist by 50% were determined (IC50). The results are set forth in Table VI below in which the compounds are identified by the reference letters used above.
*In potassiumdepolarized Tyrode solution

In another data set the test system is rat uterus, 5-HT. In words: Selectivity: inhibition of response to 5-HT, rat uterus. Format: biochemical. The note with it: agonist 5-HT, read-out: concentration to inhibit standard response to stimulants by 50% (IC50).
Description: as §1

Data set [4] relates to guinea-pig ileum, acetylcholine. The data set can be described thus: Selectivity: inhibition of response to acetylcholine or carbachol, guinea-pig ileum. The note with it: read-out: concentration to inhibit standard response to stimulants by 50% (IC50). Format: biochemical.
Description: as §1
**Carbachol agonist instead of acetylcholine

For data set [5], the system named is guinea-pig ileum, histamine. In words: Selectivity: inhibition of response to histamine, guinea-pig ileum. The data set is classed as biochemical. The conditions noted are these: agonist histamine, read-out: concentration to inhibit standard response to stimulants by 50% (IC50).
Description: as §1

Data set [6] has as its system rat fundus, acetylcholine. In words: Selectivity: inhibition of response to acetylcholine, rat fundus. Format: biochemical. The conditions noted are these: agonist acetylcholine, read-out: concentration to inhibit standard response to stimulants by 50% (IC50).
Description: as §1

The next data set has as its system rat fundus, 5-HT. In words: Selectivity: inhibition of response to 5-HT, rat fundus. The note with it: agonist 5-HT, read-out: concentration to inhibit standard response to stimulants by 50% (IC50). The data set is classed as biochemical.
Description: as §1

For the next data set, the system named is rat uterus, oxytocin. The data set can be described thus: Selectivity: inhibition of response to oxytocin, rat uterus. Format: biochemical. The conditions noted are these: agonist oxytocin, read-out: concentration to inhibit standard response to stimulants by 50% (IC50).
Description: as §1

In another data set the test system is mouse and rat. The data set can be described thus: Acute toxicity (LD50) in the mouse and rat, overall statement. Format: in vivo.
The subject of another data set is acute migraine attack. The note with it: slow intravenous injection, 10 mg; J. B. Hughes 1977; cited from earlier work.
Setting [7] is: Patient 6, after 4 mg dose i.v.

On to `CN1C2CCC1CC(OC(=O)c1cc(Cl)cc(Cl)c1)C2` (stereo not shown) [C, tropyl 3,5-dichlorobenzoate], for which the ED50 (in general, the midpoint of the dose-response relation) in data set [1] (Rattus norvegicus) was found to be 22 ± 3.2 µg/kg. Also, in data set [1] (Rattus norvegicus), the minimal effective dose was found to be 7.72 ± 0.63 µg/kg. Also, the “potency relative to metoclopramide” value in [1] is reported as “many times more potent than metoclopramide”. The response entry is on record as “no effect on headache or nausea” in data set [2] (Patient 1, i.v. 1 mg, then 1 hour later, 2 mg); “no effect” in [2] (Patient 2 (cluster), i.v. 1 mg); “no effect” in data set [2] (Patient 4 (cluster), i.v. 3 mg); “no effect” in data set [2] (Patient 7, i.v. 3 mg × 1 day, then 5 mg × 2 days, then 7 mg × 1 day). Also, the “effect of increased doses” value in data set [2] (Patient 6, 5 mg bid × 2 days, then 6 mg bid × 11 days i.v.) is “no greater effect”. The “duration of reduction of pain intensity” value in [2] (setting [7]) lay within 4 to 8 h. Also, in [2] (setting [7]), the “time to reduction of pain intensity” value is at most 30 min. In [2] (Patient 6, within 30 minutes after 4 mg dose i.v.), the “reduction of pain intensity” value is on record as 70-80%. Further, in data set [2] (Patient 8, i.v. 6 mg × 1 day, 7 mg × 2 days, 9 mg × 1 day), the “response during increasing doses” value is “maintained during increasing doses”. In addition, the reduction of pain entry in data set [2] (Patient 8, with 3 mg i.v.) is listed as “about 30%”. Also, the figures for the headache response result in [2] (3 mg single doses i.v.) and in data set [2] (4 mg bid i.v.) were “slight reduction in their bilateral headache” and “further amelioration”, respectively. In addition, in data set [2] (Patient No. 8), the “time after stopping therapy to return of headaches to pretreatment intensity” value lay within 6 to 7 days. For the same molecule, the symptom response entry in [2] (Patient No. 8, first dose of 3 mg i.v.) was “decrease in all symptoms”. In data set [2] (i.v. b.i.d., patients with headaches), the “repeated dose well tolerated (highest)” value was “up to 7 mg”. Further, in [2] (i.v., over 18 days), the “cumulative dose well tolerated (highest)” value was 177 mg. Further, the “dose per day administered without any signs of intolerance (highest)” value in data set [2] (i.v., patients) is listed as 14 mg/day. Moreover, in data set [2] (patients treated with repeated doses (Patients Nos. 6 and 8), i.v.), the “patients with marked diminution of headache and associated symptoms” value is given as “two of the three patients”. The “pain intensity and associated symptoms” value in data set [2] (some patients treated with doses of 3 mg or greater, i.v.) is “ameliorated”. Moreover, the IC50 was 28.6 µM in data set [3]; 25.4 µM in the data set on rat uterus, 5-HT; 8.05 µM in [4] (agonist acetylcholine); 3.68 µM in [5]; 12.4 µM in data set [6]; over 50.9 µM in the data set on rat fundus, 5-HT. In addition, the IC50 in the data set on rat uterus, oxytocin is over 50.9 µM. Also, the “toxicity as shown by LD50 values” in the data set with mouse and rat is given as “relatively non-toxic”.

Consider `Cc1cc(C)cc(C(=O)OC2CC3CCC(C2)N3C)c1` (stereo not shown) [B, tropyl 3,5-dimethylbenzoate], for which the ED50 in data set [1] (Rattus norvegicus) came out at 6.07 ± 0.72 µg/kg. Moreover, the minimal effective dose in data set [1] (Rattus norvegicus) was determined as 3.57 ± 0.33 µg/kg. Moreover, in [1], the “potency relative to metoclopramide” value was “many times more potent than metoclopramide”. The values for the IC50 in [3] and in data set [4] (carbachol agonist instead of acetylcholine) were 34.2 µM and 9.59 µM, respectively. Also, in the data set with mouse and rat, the “toxicity as shown by LD50 values” was “relatively non-toxic”.

Regarding `CCN(CC)CCNC(=O)c1cc(Cl)c(N)cc1OC` [metoclopramide, reference compound], the minimal effective dose in data set [1] (antagonist i.v., anaesthetized rat) amounted to 233 ± 66.3 µg/kg. Moreover, the “relief of acute migraine attack” value in the data set with acute migraine attack was “immediate relief of acute migraine attack”.

As for `COc1cc(OC)cc(C(=O)OC2CC3CCC(C2)N3C)c1` (stereo not shown) [A, tropyl 3,5-dimethoxybenzoate], the ED50 in data set [1] (Rattus norvegicus) came out at 13.7 ± 1.2 µg/kg. The minimal effective dose in data set [1] (Rattus norvegicus) was found to be 6.96 ± 0.9 µg/kg. Moreover, the “potency relative to metoclopramide” value in data set [1] is “many times more potent than metoclopramide”. Further, the IC50 was 36.1 µM in data set [3]; over 52.5 µM in the data set on rat uterus, 5-HT; 9.56 µM in data set [4] (agonist acetylcholine); 6.61 µM in [5]; 13.1 µM in [6]; 40 µM in the data set on rat fundus, 5-HT. Also, the IC50 in the data set on rat uterus, oxytocin is over 52.5 µM. For the same molecule, the “toxicity as shown by LD50 values” with mouse and rat is “relatively non-toxic”.
